Earlier results in patent US20250073301A1, “Delayed Release Compositions of Linaclotide” (Ironwood Pharmaceuticals, Inc., priority 2013, published 2025).
Ends that are not written are not given here.

Conditions: human volunteers, oral linaclotide

CCEYCCNPACTGCY (cysteine pairing not given here) [linaclotide]
oral dose found in feces: about 5%
